Assay results reported in paper PMC4961401 (PLoS ONE, 2016).
Entries after “also recorded” stand apart in the source; their conditions may differ. Read-outs that look alike come from different tables or passages of the source.

Experiments:
[1] = test system: caspase-3, PARP; assay: Western blot of caspase-3 activation and PARP cleavage; assay type: cell-based, human; conditions: A549 cells, 24 h, different concentrations
Method: Western blot assays were conducted as described previously. Briefly, the cellular protein samples were denatured by mixing with equal volume of 2 × sample loading buffer and then boiling at 100°C for 5 min. An aliquot (50 μg as protein) of the supernatant was loaded onto a 12% SDS gel, separated electrophoretically, and transferred to a Nitrocellulose membrane (Bio-Rad). After the membrane was incubated with 10 mM TBS with 20% Tween 20 and 5% dehydrated skim milk to block nonspecific protein binding, the membrane was incubated with primary antibodies overnight at 4°C. The primary antibodies used for detection of α1 and α3 subunit of Na+,K+-ATPase were rabbit polyclonal antibody against human ATP1A1 (55187, Proteintech, 1:1000) and ATP1A3 (sc-374050, Santa Cruz Biotechnology, 1:1000), respectively. Other primary antibodies including rabbit polyclonal antibody against human Src (#2109S, 1:1000), phosphor-Src(Tyr416) (#6943S, 1: 1000); PI3K p85 (#4257P, 1:1000), phosphor-PI3K p85(Tyr458)/p55(Tyr199) (#4228P, 1: 600), Akt (#9272, 1:1000), phosphor-Akt(Ser473) (#4060S, 1:800), Bax (#2772S, 1:1000), Pro-caspase-9 (#9502S, 1:800), Caspase-3 (#9662S, 1:800); PARP (#9542, 1:1000) and GAPDH (#2118, 1:1000) were all purchased from Cell Signaling Technology. […]

[2] = test system: tumor cell lines; set-up: method as in PMID 26827628; conditions: broad spectrum of tumor cell lines; ref [8]; cited from earlier work
[3] = biological target: recombinant extracellular portion of human Na+/K+-ATPase α3 subunit (Homo sapiens, UniProt P13637); assay: SPR (Biacore 3000) binding, α3 subunit
Sequence of recombinant extracellular portion of human Na+/K+-ATPase α3 subunit (P13637 with tags, fused parts or gaps): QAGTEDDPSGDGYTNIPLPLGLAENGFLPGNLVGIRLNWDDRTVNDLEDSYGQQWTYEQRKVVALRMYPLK
Method: (§1) The recombinant extracellular portion of human Na+/K+-ATPase α1 subunit (M1-M2, M3-M4, M5-M6, M7-M8 and M9-M10) was expressed as a His-fusion protein using Escherichia coli, and purified by affinity chromatography. […] The BamH I-Hind III fragment of the gene was subcloned into a pET-32b expression vector (Novagen) and transformed into E. coli BL21 (DE3) cells (Novagen). The BL21 transformants were cultivated in LB medium with ampicillin to an A600 nm of 0.8 at 37°C. Expression was induced by adding isopropyl β-D-thiogalactopyranoside (IPTG) to a final concentration of 10 mM, and incubated overnight at 20°C. The fusion protein containing a His-tag was isolated from the bacterial lysates by Ni^2+-chelation affinity chromatography using a Bio-Scale™ Mini Profinity™ IMAC Cartridge (Bio-Rad). Finally, the recombinant protein was desalted using a Bio-Scale™ Mini Bio-Gel P-6 Desalting Cartridge (Bio-Rad). The recombinant extracellular portions of the α2 and α3 subunits of human Na+/K+-ATPase were also expressed and purified using similar methods.
(§2) Briefly, for the SPR assay, the α1, α2 or α3 subunit protein was immobilized on a CM5 sensor chip as a ligand with N-ethyl-N’-(3-dimethylaminopropyl) carbodiimide (EDC) and N-hydroxysuccinimide (NHS) according to standard primary amine-coupling procedures. […] HBS-EP (10 mM HEPES, 150 mM NaCl, 3 mM EDTA, and 0.005% (v/v) surfactant P20, pH 7.4) was used as the running buffer. The equilibration of the baseline was performed by a continuous flow of HBS-EP through the chip surface for 1 to 2 h. The Biacore data were collected at 25°C with HBS-EP as the running buffer at a constant flow of 30 μL/min. […] The binding responses were recorded continuously in response units (RU) at a frequency of 1 Hz in sensorgrams and presented as a function of time.

[4] = test system: A549 cells; assay: MTT cell proliferation assay, A549; assay type: cell-based; conditions: Homo sapiens, read-out: IC50, cell viability (MTT)
Method: (§3) The human lung cancer A549, NCI-H460, NCI-H522 and NCI-H1299 cell lines were purchased from the Cell Resource Center of Shanghai Institutes for Biological Sciences, Chinese Academy of Sciences (Shanghai, P.R. China).
(§4) Cell proliferation was assessed using a colorimetric MTT assay as described previously [10]. […] After treatment, the viability of cells was evaluated by checking the absorbance at 570 nm.

[5] = test system: A549 cells; assay: Free intracellular Ca2+ level (Fluo-3 AM, flow cytometry); assay type: cell-based, human; conditions: 50 nM
Method: The level of intracellular free Ca2+ in A549 cells was determined using the fluorescent dye Fluo-3 AM (S1056, Beyotime Biotechnology, Shanghai, China), which can cross the cell membrane and be cleaved into Fluo-3 by intracellular esterase. […] After being exposed to 50 nM BF or BF211 for 0.5, 1, 10, 30, 60 and 180 min, the cells were harvested, washed twice with PBS, and then incubated with Fluo-3 AM (5 μM) in the dark at 37°C for 1 h. After washing twice with PBS to remove the remaining extracellular probe, the cells were submitted to flow cytometric analysis with an excitation wavelength of 488nm. The quantification was conducted using the FlowJo software program based on the mean values of the peak fluorescent intensity.

[6] = in vivo; conditions: ICR, mouse, ip
Method: (§5) Therefore, totally 180 mice were used in the study of acute toxicity. […] During the 3 h observation period and other monitoring time periods, animals found in a moribund condition (head and body lying flat on cage bedding with little or no response to stimuli) and animals showing severe pain or severe distress (agonal breathing, intermittent gasping or both) were humanely killed. […] At the end of the experiment, all surviving animals were euthanized by CO2 inhalation. […] The LD50 value was calculated according to the Bliss method.

[7] = test system: NCI-H460 cells; assay: MTT cell proliferation assay, NCI-H460; assay type: cell-based; conditions: Homo sapiens, NCI-H460, 72 h, read-out: IC50 values, inhibiting proliferation
Method: as §3, §4

[8] = biological target: recombinant extracellular portion of human Na+/K+-ATPase α2 subunit (Homo sapiens, UniProt P50993); assay: SPR (Biacore 3000) binding, α2 subunit
Sequence of recombinant extracellular portion of human Na+/K+-ATPase α2 subunit (P50993 with tags, fused parts or gaps): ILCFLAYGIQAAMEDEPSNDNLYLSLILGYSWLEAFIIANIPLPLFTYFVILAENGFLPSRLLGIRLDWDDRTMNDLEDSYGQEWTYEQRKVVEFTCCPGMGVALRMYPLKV
Method: as §1, §2

[9] = test system: NCI-H522 cells; assay: MTT cell proliferation assay, NCI-H522; assay type: cell-based; conditions: Homo sapiens; NCI-H522, 72 h treatment; read-out: IC50 values, inhibiting proliferation
Method: as §3, §4

[10] = test system: NCI-H1299 cells; assay: MTT cell proliferation assay, NCI-H1299; assay type: cell-based; conditions: Homo sapiens; NCI-H1299, 72 h treatment; read-out: IC50 values, inhibiting proliferation
Method: as §3, §4

[11] = biological target: recombinant extracellular portion of human Na+/K+-ATPase α1 subunit (Homo sapiens, UniProt P05023); assay: SPR (Biacore 3000) binding, α1 subunit
Method: as §1, §2

[12] = test system: porcine cortex Na+/K+-ATPase; assay: Na+/K+-ATPase activity (Pi liberated from ATP); assay type: biochemical; conditions: for inhibition of the activity of porcine cortex Na+/K+-ATPase: different concentrations, 1 h incubation
Method: The activity of Na+/K+-ATPase was determined by measuring the amount of inorganic phosphate (Pi) liberated from ATP, as described previously. Briefly, a commercial Na+/K+-ATPase from porcine cerebral cortex (Sigma-Aldrich, USA) was incorporated into a reaction mixture containing 1 mM ATP, 5 mM MgCl2, 80 mM NaCl, 20 mM KCl, and 40 mM Tris-HCl (pH 7.8). The enzymatic reaction was terminated by adding trichloroacetic acid after the incubation period (1 h). After centrifugation, the supernatant was diluted with deionized water and then the color development reagent provided by the QuantiChrom™ Phosphate Assay Kit (BioAssay Systems, USA) was added. After 30 min of incubation at room temperature, the color intensity was measured at 620 nm on GENIOS reader (TEACAN, Switzerland). The Na+/K+-ATPase energy transducing activity was expressed as μmol Pi liberated from ATP by 1 mg of Na+/K+-ATPase in 1 h.

[13] = test system: caspase-3; assay: Caspase-3 activity assay (Ac-DEVD-pNA); assay type: cell-based, human; conditions: A549 cells, 24 h, different concentrations
Method: The activity of caspase-3 was determined using a caspase-3 activity assay kit (C1115, Beyotime Biotechnology, Shanghai, China) according to the manufacturer's instructions. Briefly, after treatment with BF or BF211 at different concentrations for 24 h, the A549 cells were collected, washed with PBS and incubated with lysis buffer on ice for 15 min. After centrifugation at 2,000 g for 15 min at 4°C, the cell lysates were collected, and their protein concentrations were determined using the A280 method with a UV-Vis Spectrophotometer Q5000 (Quawell Technology, San Jose, CA, USA). Cell lysates (50 μg protein) were then added to reaction buffer containing the caspase-3 substrate Ac-DEVD-p-nitroanilide (2 mM) in 96-well microtiter plates and incubated at 37°C for 4 h. The caspase-3 activity in the samples was quantified by detecting the release of p-nitroanilide from Ac-DEVD-p-nitroanilide with a microplate spectrophotometer at 405 nm. The caspase-3 activity was expressed as the fold of enzyme activity in comparison with the control.

[14] = test system: ICR mice; conditions: single dose i.p., Bliss method
Method: as §5

[15] = test system: A549 cells; assay: Annexin V/PI flow cytometry analysis of apoptosis; assay type: cell-based, human; conditions: 24 h treatment
Method: Flow cytometric analysis of the level of apoptosis was conducted using Alexa Fluor 488 Annexin V & PI /Dead Cell Apoptosis Kit (Invitrogen) according to the manufacturer’s instructions. Briefly, after the 24 h treatment with BF or BF211 at different concentrations, the cells were collected, washed with PBS and resuspended in binding buffer. Then, the cells were incubated with Annexin V-FITC and propidium iodide for 15 min in the dark at room temperature, and flow cytometric analysis was conducted. Data analysis was performed with the CellQuest software.

[16] = test system: A549 tumor xenografts; assay: Human A549 tumor xenograft in nude mice; assay type: in vivo, Balb/c-nu-nu mice; conditions: i.p., qd
Method: Male nude immunodeficient Balb/c-nu-nu mice, aged 6–7 weeks were purchased from the Shanghai Experimental Animal Center and housed in accordance with protocols approved by the Shanghai Institute of Materia Medica, Chinese Academy of Sciences. Generally, on day 0, A549 cells (8×10^6 cells) suspended in 0.1 mL of PBS were mixed with 0.1 mL Matrigel basement membrane matrix (BD Biosciences) and then inoculated s.c. in the right flank of each mouse. Tumors were allowed to reach 100–300 mm^3 in size before treatments were adminstered. In the animal experiment, the tumor size was measured every 3–4 days using calipers and the tumor volume was calculated using the standard formula, width^2×length/2. Body weight was measured daily.
Two experiments using nude mice with A549 tumor xenografts were conducted. In the first experiment, we tried to compare the anti-cancer effects of BF and BF211 at the same concentrations. Briefly, 12 days after inoculation, the mice were randomly divided into 6 groups (6 mice in each group) and began treatment with the vehicle control (natural saline, i.p., qd); a positive control (rapamycin, 10 mg/kg, i.v., once a week); BF at 0.8 mg/kg, i.p., qd; BF at 0.4 mg/kg for 7 days, which was then increased to 1.6 mg/kg for 9 days, i.p., qd; BF211 at 0.8 mg/kg, i.p., qd; BF211 at 0.4 mg/kg for 7 days, which was then increased to 1.6 mg/kg for 9 days, i.p., qd. In the second experiment, the anti-cancer effects of BF211 were determined at higher concentrations. Briefly, 15 days after inoculation, mice were randomly divided into 5 groups (10 mice in each group) and started treatment with the vehicle control (i.p., qd); a positive control (rapamycin, 10 mg/kg, i.v., once a week); BF211 at 2 mg/kg, i.p., qd; BF211 at 4 mg/kg, i.p., qd; BF211 at 6 mg/kg, i.p., qd. No mice died during this experimental period, and all animals were euthanized by CO2 inhalation at the end of the experiment.

[17] = test system: Src; assay: Western blot of Src activation (p-Src); assay type: cell-based, human; conditions: A549 cells, 50 nM
Method: Western blot assays were conducted as described previously. Briefly, the cellular protein samples were denatured by mixing with equal volume of 2 × sample loading buffer and then boiling at 100°C for 5 min. An aliquot (50 μg as protein) of the supernatant was loaded onto a 12% SDS gel, separated electrophoretically, and transferred to a Nitrocellulose membrane (Bio-Rad). After the membrane was incubated with 10 mM TBS with 20% Tween 20 and 5% dehydrated skim milk to block nonspecific protein binding, the membrane was incubated with primary antibodies overnight at 4°C. The primary antibodies used for detection of α1 and α3 subunit of Na+,K+-ATPase were rabbit polyclonal antibody against human ATP1A1 (55187, Proteintech, 1:1000) and ATP1A3 (sc-374050, Santa Cruz Biotechnology, 1:1000), respectively. Other primary antibodies including rabbit polyclonal antibody against human Src (#2109S, 1:1000), phosphor-Src(Tyr416) (#6943S, 1: 1000); PI3K p85 (#4257P, 1:1000), phosphor-PI3K p85(Tyr458)/p55(Tyr199) (#4228P, 1: 600), Akt (#9272, 1:1000), phosphor-Akt(Ser473) (#4060S, 1:800), Bax (#2772S, 1:1000), Pro-caspase-9 (#9502S, 1:800), Caspase-3 (#9662S, 1:800); PARP (#9542, 1:1000) and GAPDH (#2118, 1:1000) were all purchased from Cell Signaling Technology. After TBS washes, blots were then incubated with HRP-linked goat anti-rabbit IgG (#7074, 1:1000) secondary antibody for 2 h at room temperature at a 1:1000 dilution and then visualized using chemiluminescence (Pierce Biotechnology, Rockford, IL, USA).

[18] = test system: ICR mice; conditions: i.p., ref [14]; cited from earlier work
[19] = concentrations less than 2 mg/kg (0.8 mg/kg, or 0.4 then 1.6 mg/kg)

## C[C@]12CC[C@H](OC(=O)NC3CCNCC3)C[C@H]1CC[C@@H]1[C@@H]2CC[C@]2(C)[C@@H](c3ccc(=O)oc3)CC[C@]12O [BF211]
[1]
  activation of caspase-3 and cleavage of PARP: stronger than that of BF at high concentrations
[2]
  IC50 values, anticancer activities: nanomolar level
[3]; 25°C, 1:1 Langmuir model, read-out: Association (ka)
  kon: 30700 M⁻¹ s⁻¹
[3]; 25°C, 1:1 Langmuir model, read-out: Dissociation (kd)
  koff: 0.116 s⁻¹
[3]; KD = kd/ka, read-out: Equilibrium dissociation (KD)
  Kd: 3780 nM
[4]; 24 h treatment
  IC50: 6.76 ± 0.41 nM
[4]; 48 h treatment
  IC50: 4.01 ± 2.68 nM
[5]
  time of another (second) peak of intracellular Ca2+ level: 1800 s
  time of peak intracellular Ca2+ level: 0.5 min
[6]; female
  LD50: 18.2 mg/kg
[6]; male
  LD50: 14.8 mg/kg
[7]
  IC50: 68 ± 6.91 nM
[8]; read-out: Association (ka)
  kon: 9820 M⁻¹ s⁻¹
[8]; read-out: Dissociation (kd)
  koff: 0.0441 s⁻¹
[8]; α2, SPR, KD = kd/ka, read-out: Equilibrium dissociation (KD)
  Kd: 4490 nM
[9]
  IC50: 48.3 ± 0.69 nM
[10]
  IC50: 40.1 ± 4.04 nM
[11]; read-out: Association (ka)
  kon: 17700 M⁻¹ s⁻¹
[11]; read-out: Dissociation (kd)
  koff: 0.0526 s⁻¹
[11]; α1, SPR, KD = kd/ka, read-out: Equilibrium dissociation (KD)
  Kd: 2960 nM
[12]; at some concentrations, such as 0.1 μM
  inhibition of Na+/K+-ATPase activity compared with BF: slightly weaker than BF
[12]
  inhibition of the activity of porcine cortex Na+/K+-ATPase: concentration-dependent
[13]
  enzyme activity of caspase-3: significantly stronger than that of BF
[14]; female mice
  LD5 (95% confidence): 12.03 mg/kg (10.04~14.41 mg/kg)
  LD95 (95% confidence): 27.55 mg/kg (22.56~33.66 mg/kg)
[14]; male mice
  LD5 (95% confidence): 9.52 mg/kg (7.81~11.61 mg/kg)
  LD95 (95% confidence): 22.85 mg/kg (18.89~27.64 mg/kg)
[15]
  induction of apoptosis: more strongly induced apoptosis than BF
[16]; 6 mg/kg
  effect on tumor growth: almost totally blocked; also recorded: almost totally inhibited
[16]; 2, 4, and 6 mg/kg
  effect on growth of tumor xenografts: concentration-dependent inhibitive effects
[16]; 4 or 6 mg/kg
  effect on growth of tumor xenografts: strongly inhibited
[16]; [19]
  effect on tumor growth: weak inhibitive effects
[17]; 1 h after treatment
  level of phosphorylated Src (p-Src): significant increase
[17]; 3 h after treatment
  level of phosphorylated Src (p-Src): significant increase

## C[C@]12CC[C@H](O)C[C@H]1CC[C@@H]1[C@@H]2CC[C@]2(C)[C@@H](c3ccc(=O)oc3)CC[C@]12O [BF, Bufalin, reference compound]
[1]
  activation of caspase-3 and cleavage of PARP: could induce the activation of caspase-3 and the cleavage of PARP
[4]; 48 h treatment
  IC50: 10.2 ± 1.01 nM
[5]
  time of peak intracellular Ca2+ level: 0.5 min
[18]
  LD50: 2.2 mg/kg
[7]
  IC50: 114 ± 11.2 nM
[9]
  IC50: 98.7 ± 2.76 nM
[10]
  IC50: 88.3 ± 11.9 nM
[12]
  inhibition of the activity of porcine cortex Na+/K+-ATPase: concentration-dependent
[13]
  enzyme activity of caspase-3: increase in the activity of caspase-3
[15]
  induction of apoptosis: could induce apoptosis
[16]; [19]
  effect on tumor growth: weak inhibitive effects
[17]; 1 h after treatment
  level of phosphorylated Src (p-Src): significant increase
